pIC50: −log10 of the molar value. Like-named read-outs stand apart in the source and are kept apart here.

This is an account of results in patent US11345711B2, “8,9-dihydroimidazo[1,2-a]pyrimido[5,4-e]pyrimidin-5(6H)-ones” (IMPACT THERAPEUTICS (SHANGHAI), INC, priority 2016, dated 2022).

Experiment [1] deals with NCI-H1299 cells. As to the kind of experiment: MTT based cell viability assay on NCI-H1299 cells. The note with it: Homo sapiens, read-out: IC50, growth inhibition of NCI-H1299 cells. The essentials:
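Viability read-out was MTT reduction (0.5 mg/mL, 4 h, absorbance 552/630/690 nm) after 3-day compound exposure at 37 °C of NCI-H1299 cells seeded at 1000 per well. Dilutions spanned 10 μM–0.01 μM in DMSO, final DMSO 1‰. Survival-versus-concentration curves were fitted sigmoidally to give IC50.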

Experiment [2] has as its target Wee1 (h) (Homo sapiens, UniProt P30291). Briefly: Wee1 kinase (h) detection method, [γ-33P]-ATP filter assay. In kind it is biochemical.
For experiment [3], the system named is LoVo cells. As to the kind of experiment: MTT based cell viability assay on LoVo cells. Particulars: Homo sapiens, LoVo, 72 h, 3 d, read-out: IC50, growth inhibition of LoVo cells. The procedure, abridged: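 Inhibition of LoVo proliferation was derived as IC50 from a sigmoidal dose-response fit of cell survival. Readout was MTT (0.5 mg/mL, 4 h) with absorbance at 552/630/690 nm, after 3-day treatment at 37 °C. Eight-point series from 10 μM to 0.01 μM, DMSO control, 1% DMSO final.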

Sequence of Wee1 (h) (P30291 whole entry): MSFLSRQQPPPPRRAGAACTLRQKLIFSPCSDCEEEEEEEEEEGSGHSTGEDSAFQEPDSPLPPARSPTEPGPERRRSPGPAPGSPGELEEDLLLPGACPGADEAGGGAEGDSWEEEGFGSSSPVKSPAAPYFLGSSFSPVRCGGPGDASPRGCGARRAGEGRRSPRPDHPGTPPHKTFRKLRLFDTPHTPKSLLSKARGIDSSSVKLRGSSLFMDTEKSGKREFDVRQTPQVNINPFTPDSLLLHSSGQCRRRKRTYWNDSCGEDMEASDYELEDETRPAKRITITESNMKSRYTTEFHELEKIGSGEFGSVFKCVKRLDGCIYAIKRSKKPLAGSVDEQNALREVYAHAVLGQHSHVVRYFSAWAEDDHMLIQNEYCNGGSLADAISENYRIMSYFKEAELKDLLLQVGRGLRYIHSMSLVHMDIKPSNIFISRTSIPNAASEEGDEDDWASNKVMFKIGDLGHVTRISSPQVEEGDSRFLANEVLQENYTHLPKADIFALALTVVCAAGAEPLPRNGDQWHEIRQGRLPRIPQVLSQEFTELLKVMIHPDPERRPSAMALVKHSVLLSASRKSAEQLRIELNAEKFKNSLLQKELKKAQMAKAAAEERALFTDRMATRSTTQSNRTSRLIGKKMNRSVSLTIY

With `CN1CCn2nc(Nc3ncc4c(n3)N3CCN=C3N(c3c(Cl)cccc3Cl)C4=O)cc2C1` [Example 79, 6-(2,6-Dichlorophenyl)-2-((5-methyl-4,5,6,7-tetrahydropyrazolo[1,5-a]pyrazin-2-yl)amino)-8,9-dihydroimidazo[1,2-a]pyrimido[5,4-e]pyrimidin-5(6H)-one], the pIC50 in experiment [1] (NCI-H1299 cells) is less than 5.00; in experiment [3], less than 4.00. In experiment [2] (C 1 μm compound), the “Inh. (%) of Wee1 kinase enzyme activity” value turned out to be 69%.

Regarding `Cc1cc(Nc2ncc3c(n2)N2CCN=C2N(c2c(Cl)cccc2C(F)(F)F)C3=O)ccc1N1CCN(C)CC1` [Example 80, 6-(2-Chloro-6-(trifluoromethyl)phenyl)-2-((3-methyl-4-(4-methylpiperazin-1-yl)phenyl)amino)-8,9-dihydroimidazo[1,2-a]pyrimido[5,4-e]pyrimidin-5(6H)-one], the pIC50 is 6.01 in experiment [1] (NCI-H1299, NCI-H1299 cells) and 6.27 in experiment [3]. In addition, the “Inh. (%) of Wee1 kinase enzyme activity” value in experiment [2] (C 1 μm compound) is given as 80%.

Regarding `Cc1cc(Nc2ncc3c(n2)N2CCN=C2N(c2c(C)cccc2Cl)C3=O)ccc1N1CCN(C)CC1` [Example 81, 6-(2-Chloro-6-methylphenyl)-2-((3-methyl-4-(4-methylpiperazin-1-yl)phenyl)amino)-8,9-dihydroimidazo[1,2-a]pyrimido[5,4-e]pyrimidin-5(6H)-one], the pIC50 in experiment [1] (NCI-H1299, NCI-H1299 cells) was 6.51; in experiment [3] it was 6.87. In addition, the “Inh. (%) of Wee1 kinase enzyme activity” value amounted to 7% in experiment [2] (C 0.01 μm compound), 72% in experiment [2] (C 0.1 μm compound) and 89% in experiment [2] (C 1 μm compound).

Consider `COc1cccc(Cl)c1N1C(=O)c2cnc(Nc3ccc(N4CCN(C)CC4)c(C)c3)nc2N2CCN=C21` [Example 82, 6-(2-Chloro-6-methoxyphenyl)-2-((3-methyl-4-(4-methylpiperazin-1-yl)phenyl)amino)-8,9-dihydroimidazo[1,2-a]pyrimido[5,4-e]pyrimidin-5(6H)-one], for which the pIC50 was 5.92 in experiment [1] (NCI-H1299 cells) and 6.02 in experiment [3]. In experiment [2] (C 1 μm compound), the “Inh. (%) of Wee1 kinase enzyme activity” value was 83%.

As to `Cc1cccc(C)c1N1C(=O)c2cnc(Nc3ccc(N4CCN(C)CC4)cc3)nc2N2CCN=C21` [Example 83, 6-(2,6-Dimethylphenyl)-2-((4-(4-methylpiperazin-1-yl)phenyl)amino)-8,9-dihydroimidazo[1,2-a]pyrimido[5,4-e]pyrimidin-5(6H)-one], the pIC50 is 5.84 in experiment [1] (NCI-H1299 cells) and 5.54 in experiment [3]. The “Inh. (%) of Wee1 kinase enzyme activity” value in experiment [2] (C 0.01 μm compound) is 15%; in experiment [2] (C 0.1 μm compound), 59%; in experiment [2] (C 1 μm compound) it was 94%.

`Cc1cccc(C)c1N1C(=O)c2cnc(Nc3ccc(N4C[C@@H](C)N(C)[C@@H](C)C4)cc3)nc2N2CCN=C21` [Example 84, 6-(2,6-Dimethylphenyl)-2-((4-((3S,5R)-3,4,5-trimethylpiperazin-1-yl)phenyl)amino)-8,9-dihydroimidazo[1,2-a]pyrimido[5,4-e]pyrimidin-5(6H)-one]: the pIC50 is 6.08 in experiment [1] (NCI-H1299 cells) and 5.51 in experiment [3]. Further, the “Inh. (%) of Wee1 kinase enzyme activity” value in experiment [2] (C 0.01 μm compound) is 18%; in experiment [2] (C 0.1 μm compound), 49%; in experiment [2] (C 1 μm compound), 93%.

For `CN1CCN(c2ccc(Nc3ncc4c(n3)N3CCN=C3N(c3ccc(Cl)cc3)C4=O)cc2)CC1` [Example 85, 6-(4-Chlorophenyl)-2-((4-(4-methylpiperazin-1-yl)phenyl)amino)-8,9-dihydroimidazo[1,2-a]pyrimido[5,4-e]pyrimidin-5(6H)-one], the pIC50 is less than 5.00 in experiment [1] (NCI-H1299 cells) and less than 4.00 in experiment [3]. In addition, the “Inh. (%) of Wee1 kinase enzyme activity” value in experiment [2] (C 1 μm compound) was 17%.

For the compound `CN1CCN(c2ccc(Nc3ncc4c(n3)N3CCN=C3N(c3cccc(Cl)c3)C4=O)cc2)CC1` [Example 86, 6-(3-Chlorophenyl)-2-((4-(4-methylpiperazin-1-yl)phenyl)amino)-8,9-dihydroimidazo[1,2-a]pyrimido[5,4-e]pyrimidin-5(6H)-one], the results for the pIC50 in experiment [1] (NCI-H1299 cells) and in experiment [3] were less than 5.00 and less than 4.00, respectively. Also, in experiment [2] (C 1 μm compound), the “Inh. (%) of Wee1 kinase enzyme activity” value is 13%.

As to `CN1CCN(c2ccc(Nc3ncc4c(n3)N3CCN=C3N(c3ccc(Cl)cc3Cl)C4=O)cc2)CC1` [Example 87, 6-(2,4-Dichlorophenyl)-2-((4-(4-methylpiperazin-1-yl)phenyl)amino)-8,9-dihydroimidazo[1,2-a]pyrimido[5,4-e]pyrimidin-5(6H)-one], the pIC50 in experiment [1] (NCI-H1299 cells) is less than 5.00; in experiment [3] it was less than 4.00. Moreover, in experiment [2] (C 1 μm compound), the “Inh. (%) of Wee1 kinase enzyme activity” value came out at 75%.

`CN1CCN(c2ccc(Nc3ncc4c(n3)N3CCN=C3N(c3ccc(F)cc3Cl)C4=O)cc2)CC1` [Example 88, 6-(2-Chloro-4-fluorophenyl)-2-((4-(4-methylpiperazin-1-yl)phenyl)amino)-8,9-dihydroimidazo[1,2-a]pyrimido[5,4-e]pyrimidin-5(6H)-one]: the pIC50 is less than 5.52 in experiment [1] (NCI-H1299 cells) and less than 4.00 in experiment [3]. Also, the “Inh. (%) of Wee1 kinase enzyme activity” value in experiment [2] (C 1 μm compound) turned out to be 75%.

With `CN1CCN(c2ccc(Nc3ncc4c(n3)N3CCN=C3N(c3cccc(F)c3Cl)C4=O)cc2)CC1` [Example 89, 6-(2-Chloro-3-fluorophenyl)-2-((4-(4-methylpiperazin-1-yl)phenyl)amino)-8,9-dihydroimidazo[1,2-a]pyrimido[5,4-e]pyrimidin-5(6H)-one], the pIC50 in experiment [1] (NCI-H1299 cells) was 6.02; in experiment [3], 6.66. The “Inh. (%) of Wee1 kinase enzyme activity” value in experiment [2] (C 1 μm compound) turned out to be 89%.

`CN1CCN(c2ccc(Nc3ncc4c(n3)N3CCN=C3N(c3cc(Cl)ccc3Cl)C4=O)cc2)CC1` [Example 90, 6-(2,5-Dichlorophenyl)-2-((4-(4-methylpiperazin-1-yl)phenyl)amino)-8,9-dihydroimidazo[1,2-a]pyrimido[5,4-e]pyrimidin-5(6H)-one]: the pIC50 in experiment [1] (NCI-H1299 cells) was less than 5.00; in experiment [3], 5.88. Moreover, in experiment [2] (C 1 μm compound), the “Inh. (%) of Wee1 kinase enzyme activity” value is on record as 29%.

In the case of `CN1CCN(c2ccc(Nc3ncc4c(n3)N3CCN=C3N(c3cccc(Cl)c3Cl)C4=O)cc2)CC1` [Example 91, 6-(2,3-Dichlorophenyl)-2-((4-(4-methylpiperazin-1-yl)phenyl)amino)-8,9-dihydroimidazo[1,2-a]pyrimido[5,4-e]pyrimidin-5(6H)-one], the pIC50 in experiment [1] (NCI-H1299 cells) is 5.63; in experiment [3], 6.73. Besides, the “Inh. (%) of Wee1 kinase enzyme activity” value in experiment [2] (C 1 μm compound) is given as 75%.

In the case of `CN1CCN(c2ccc(Nc3ncc4c(n3)N3CCN=C3N(c3ncccn3)C4=O)cc2)CC1` [Example 92, 6-(Pyrimidin-2-yl)-2-((4-(4-methylpiperazin-1-yl)phenyl)amino)-8,9-dihydroimidazo[1,2-a]pyrimido[5,4-e]pyrimidin-5(6H)-one], the results for the pIC50 in experiment [1] (NCI-H1299 cells) and in experiment [3] were less than 5.00 and less than 4.00, respectively. For the same compound, in experiment [2] (C 1 μm compound), the “Inh. (%) of Wee1 kinase enzyme activity” value is reported as 1%.

For the compound `CN1CCN(c2ccc(Nc3ncc4c(n3)N3CCN=C3NC4=O)cc2)CC1` [Example 93, 2-((4-(4-Methylpiperazin-1-yl)phenyl)amino)-8,9-dihydroimidazo[1,2-a]pyrimido[5,4-e]pyrimidin-5(6H)-one], the figures for the pIC50 in experiment [1] (NCI-H1299 cells) and in experiment [3] were less than 5.00 and less than 4.00, respectively. Also, the “Inh. (%) of Wee1 kinase enzyme activity” value in experiment [2] (C 1 μm compound) amounted to 0%.

With `CN1CCN(c2ccc(Nc3ncc4c(n3)N3CCN=C3N(C3CCC3)C4=O)cc2)CC1` [Example 94, 6-Cyclobutyl-2-((4-(4-methylpiperazin-1-yl)phenyl)amino)-8,9-dihydroimidazo[1,2-a]pyrimido[5,4-e]pyrimidin-5(6H)-one], the pIC50 in experiment [1] (NCI-H1299 cells) is 5.62; in experiment [3], 5.72. Besides, the “Inh. (%) of Wee1 kinase enzyme activity” value in experiment [2] (C 1 μm compound) is 19%.

On to `CN1CCN(c2ccc(Nc3ncc4c(n3)N3CCN=C3N(C3CCCC3)C4=O)cc2)CC1` [Example 95, 6-Cyclopentyl-2-((4-(4-methylpiperazin-1-yl)phenyl)amino)-8,9-dihydroimidazo[1,2-a]pyrimido[5,4-e]pyrimidin-5(6H)-one], for which the pIC50 was 5.67 in experiment [1] (NCI-H1299 cells) and 5.72 in experiment [3]. In addition, the “Inh. (%) of Wee1 kinase enzyme activity” value in experiment [2] (C 1 μm compound) worked out at 8%.

`CN1CCN(c2ccc(Nc3ncc4c(n3)N3CCN=C3N(c3ccccc3)C4=O)cc2)CC1` [Example 96, 6-Phenyl-2-((4-(4-methylpiperazin-1-yl)phenyl)amino)-8,9-dihydroimidazo[1,2-a]pyrimido[5,4-e]pyrimidin-5(6H)-one]: the pIC50 is less than 5.00 in experiment [1] (NCI-H1299 cells) and less than 4.00 in experiment [3]. For the same compound, the “Inh. (%) of Wee1 kinase enzyme activity” value in experiment [2] (C 1 μm compound) is recorded as 29%.

`CN1CCN(c2ccc(Nc3ncc4c(n3)N3CCN=C3N(c3ccccn3)C4=O)cc2)CC1` [Example 97, 6-(Pyridin-2-yl)-2-((4-(4-methylpiperazin-1-yl)phenyl)amino)-8,9-dihydroimidazo[1,2-a]pyrimido[5,4-e]pyrimidin-5(6H)-one]: the results for the pIC50 in experiment [1] (NCI-H1299 cells) and in experiment [3] were less than 5.00 and less than 4.00, respectively. For the same compound, in experiment [2] (C 1 μm compound), the “Inh. (%) of Wee1 kinase enzyme activity” value turned out to be 9%.

On to `CN1CCN(c2ccc(Nc3ncc4c(n3)N3CCN=C3N(c3cccnc3)C4=O)cc2)CC1` [Example 98, 6-(Pyridin-3-yl)-2-((4-(4-methylpiperazin-1-yl)phenyl)amino)-8,9-dihydroimidazo[1,2-a]pyrimido[5,4-e]pyrimidin-5(6H)-one], for which the pIC50 is less than 5.00 in experiment [1] (NCI-H1299 cells) and less than 4.00 in experiment [3]. The “Inh. (%) of Wee1 kinase enzyme activity” value in experiment [2] (C 1 μm compound) was found to be 2%.

As usually defined, the pIC50 is −log10 of the IC50, conventionally taken in molar units.
